Assay results taken from PubChem BioAssay AID1919008 (Molecular Pharmacology Branch, DTP, NCI, 2023).
Several values for one entry are separate records, joined by “and”; a condition that tells them apart may be missing. Equal values may be shown once.

System: DMS-114 complex spheroids with HUVEC/MSC, growth % test/control
Test: Anticancer human tumor DMS-114 cell line growth inhibition [AhR];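 note: spheroids exposed to agents for 7 days before readout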;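 for viability, T/C: 100% = DMSO vehicle control wells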
Conditions: for viability, T/C: stronger effect = lower value
Source text: Multicellular complex tumor spheroid response to aryl hydrocarbon receptor antagonists in combination with a variety of drugs and investigational agents in selected tumor cell lines
The current study was undertaken to assess response to aryl hydrocarbon receptor antagonists in combination with standard-of-care drugs and investigational agents in solid tumor complex spheroid models. Complex spheroids include a stromal component modeled by human endothelial cells (HUVEC) and fibroblasts modeled by human mesenchymal stem cells (MSCs). The concentration ranges selected for each drug and investigational agent were based upon clinically achievable concentrations if the clinical Cmax of the agent was known.
Compounds. The drugs and investigational agents: BAY 2416964 (NSC825713), GNF351 (NSC835774), CH-223191 (NSC835775), CPI-455 (NSC825282), aza-TdCyd (NSC777586), decitabine (NSC127716), belinostat (NSC758774), entinostat (NSC756642), pevonedistat (NSC761192), tazemetostat (NSC777109), talazoparib (NSC765396), olaparib (NSC753686), selinexor (NSC780203), nedisertib (M3814, NSC802822), bortezomib (NSC756655), venetoclax (NSC766270), doxorubicin (NSC123127), elimusertib (BAY189344, NSC800525), ceralasertib (AZD6738, NSC777638), TAK-243 (NSC785004), alisertib (NSC759677), etoposide (NSC141540), topotecan (NSC609699), eribulin (NSC707389), gemcitabine (NSC613327), carboplatin (NSC241240), cisplatin (NSC119875), and SN-38 (NSC673596) were obtained from the National Cancer Institute (NCI) Developmental Therapeutics Program Chemical Repository (32). The FDA-approved anticancer drug set is available from the Developmental Therapeutics Program at https://dtp.cancer.gov/organization/dscb/obtaining/available plates.htm. […] The stock solutions were prepared in dimethyl sulfoxide (DMSO, Sigma-Aldrich, St. Louis, MO, cat. D2650), except for the platinum compounds which were prepared in saline (Quality Biological, Gaithersburg, MD, cat. 114-055-101), at 800-fold the tested concentration and stored at -70 degrees C prior to their use. All drugs and investigational agents were tested over a range starting from a high concentration at or near the clinical Cmax and decreasing in half-log increments. If the clinical Cmax for an agent had not been determined, the highest concentration tested was 10 microM (Table 1).
Cell Culture. All cells were maintained in an incubator at 37 degrees C and 5% CO2 with 95% humidity. The PDC lines were cultured according to standard operating procedures established by the NCI PDMR (https://pdmr.cancer.gov). Briefly, all PDCs were thawed and cultured in Matrigel-coated flasks prepared with a working solution of 1X Ham's F-12 nutrient mix, without supplementation (Invitrogen, Waltham, MA, cat. 11765054), 100 U/mL penicillin-streptomycin (Invitrogen, cat. 15140122), and 2.5% Matrigel (Corning Inc., Corning, NY, cat. 354248) for the first three passages. All PDCs were cultured in complete DMEM/F-12 media containing advanced DMEM/F-12 (Invitrogen, cat. 12634028), 4.9% defined fetal bovine serum, heat inactivated (HyClone Laboratories Inc., Logan, UT, cat. SH30070.03HI), 389 ng/mL hydrocortisone (Sigma-Aldrich, cat. H4001), 9.7 ng/mL human EGF recombinant protein (Invitrogen, cat. PHG0313), 23.4 microg/mL adenine (Sigma-Aldrich, cat. A2786), 97.3 U/mL penicillin-streptomycin (Invitrogen, cat. 15140122), 1.9 mM L-glutamine (Invitrogen, cat. 25030081), and 9.7 microM Y-27632 dihydrochloride (Tocris Bioscience, Bristol, United Kingdom, cat. 1254). The PDCs were cultured in complete DMEM/F12 media without 10 microM Y-27632 dihydrochloride for at least two passages prior to the screen. The established cell lines NCI-H1341 and […] were cultured in DMEM/F-12, HEPES (Invitrogen, cat. 11330032), 5% defined fetal bovine serum (HyClone Laboratories Inc., cat. SH30070.03), ITS premix universal culture supplement [insulin (5 microg/mL), transferrin (5 microg/mL), and selenious acid (5 ng/mL)] […]

COc1cccc2c1C(=O)c1c(O)c3c(c(O)c1C2=O)CC(O)(C(=O)CO)CC3OC1CC(N)C(O)C(C)O1 (stereo not given)
viability, T/C (compound 0.0316 µM): 23.9% and 68.6% and 44.3% | viability, T/C (compound 0.1 µM): 18% and 54.1% and 32.1% | viability, T/C (compound 0.316 µM): 4.97% and 18.6% and 9.53% | viability, T/C (compound 1 µM): 0.27% and 1.97% and 1.19% | viability, T/C (compound 3.16 µM): 0.18% and 0.45% and 0.38% | viability, T/C (compound 10 µM): 0.28% and 0.73% and 0.56% | IC50 (curve of compound): < 0.0316 µM and 0.115 µM

Cc1ccccc1N=Nc1ccc(NC(=O)c2ccnn2C)c(C)c1
viability, T/C (compound 0.1 µM): 99.4% [middle of 20 runs] | viability, T/C (compound 0.316 µM): 101% [middle of 20 runs] | viability, T/C (compound 1 µM): 97.6% [middle of 20 runs] | viability, T/C (compound 10 µM): 94% [middle of 20 runs] | IC50 (compound alone, run of 07/26/2022): > 10 µM

Cn1ncnc1C1c2n[nH]c(=O)c3cc(F)cc(c23)NC1c1ccc(F)cc1 (stereo not given)
viability, T/C (compound 0.000316 µM): 100% and 96.9% and 109% | viability, T/C (compound 0.001 µM): 98.4% and 102% and 98% | viability, T/C (compound 0.00316 µM): 95.9% and 96.9% and 99.1% | viability, T/C (compound 0.01 µM): 96% and 100% and 99.3% | viability, T/C (compound 0.0316 µM): 93.1% and 107% and 99.9% | viability, T/C (compound 0.1 µM): 76.3% and 101% and 86.2% | IC50 (curve of compound): > 0.1 µM

NS(=O)(=O)OCC1CC(n2ccc3c(NC4CCc5ccccc54)ncnc32)CC1O (stereo not given)
viability, T/C (compound 0.0316 µM): 56% and 124% and 59.6% | viability, T/C (compound 0.1 µM): 31.8% and 84.4% and 33.5% | viability, T/C (compound 0.316 µM): 17.6% and 31.9% and 17.2% | viability, T/C (compound 1 µM): 6.55% and 22.7% and 10.3% | viability, T/C (compound 3.16 µM): 4.52% and 19.9% and 8.23% | viability, T/C (compound 10 µM): 4.43% and 14.3% and 5.53% | IC50 (curve of compound): 0.0423 µM and 0.215 µM and 0.048 µM

Nc1ccccc1NC(=O)c1ccc(CNC(=O)OCc2cccnc2)cc1
viability, T/C (compound 0.0316 µM): 89.7% and 96.8% and 108% | viability, T/C (compound 0.1 µM): 85% and 94.1% and 92.8% | viability, T/C (compound 0.316 µM): 68% and 90.9% and 67.3% | viability, T/C (compound 1 µM): 37.8% and 74.1% and 40.4% | viability, T/C (compound 3.16 µM): 15.6% and 44% and 22.9% | viability, T/C (compound 10 µM): 8.33% and 24.4% and 14.5% | IC50 (curve of compound): 0.627 µM and 2.52 µM and 0.665 µM

Nc1ccn(C2OC(CO)C(O)C2(F)F)c(=O)n1 (stereo not given)
viability, T/C (compound 0.0316 µM): 9.8% and 13.2% and 25.1% | viability, T/C (compound 0.1 µM): 8.85% and 12.6% and 26.8% | viability, T/C (compound 0.316 µM): 9.58% and 12.2% and 25.9% | viability, T/C (compound 1 µM): 10.4% and 11% and 25.1% | viability, T/C (compound 3.16 µM): 9.16% and 11.7% and 24.5% | viability, T/C (compound 10 µM): 9.05% and 10.8% and 25.4% | IC50 (curve of compound): < 0.0316 µM

Nc1ncn(C2CC(O)C(CO)O2)c(=O)n1 (stereo not given)
viability, T/C (compound 0.00316 µM): 91.9% and 109% and 106% | viability, T/C (compound 0.01 µM): 97.6% and 110% and 95% | viability, T/C (compound 0.0316 µM): 105% and 108% and 88.3% | viability, T/C (compound 0.1 µM): 83.8% and 112% and 109% | viability, T/C (compound 0.316 µM): 66.8% and 110% and 78% | viability, T/C (compound 1 µM): 53.1% and 110% and 66.1% | IC50 (curve of compound): > 1 µM

Nc1ncn(C2CC(O)C(CO)S2)c(=O)n1 (stereo not given)
viability, T/C (compound 0.000949 µM): 97.3% and 101% and 110% | viability, T/C (compound 0.003 µM): 108% and 102% and 116% | viability, T/C (compound 0.00949 µM): 112% and 104% and 102% | viability, T/C (compound 0.03 µM): 88.5% and 101% and 88.9% | viability, T/C (compound 0.0949 µM): 60.1% and 107% and 84.8% | viability, T/C (compound 0.3 µM): 46.1% and 86.9% and 52.9% | IC50 (curve of compound): 0.222 µM and > 0.3 µM

O=C(C=Cc1cccc(S(=O)(=O)Nc2ccccc2)c1)NO
viability, T/C (compound 0.0316 µM): 88.4% and 108% and 83% | viability, T/C (compound 0.1 µM): 85.7% and 103% and 74.2% | viability, T/C (compound 0.316 µM): 54.9% and 91% and 60% | viability, T/C (compound 1 µM): 29.6% and 69.9% and 26.9% | viability, T/C (compound 3.16 µM): 13.4% and 26.4% and 15.6% | viability, T/C (compound 10 µM): 9.67% and 29.7% and 13.6% | IC50 (curve of compound): 0.424 µM and 1.73 µM and 0.436 µM

O=C(C=Cn1cnc(-c2cc(C(F)(F)F)cc(C(F)(F)F)c2)n1)NNc1cnccn1
viability, T/C (compound 0.00949 µM): 106% and 109% and 113% | viability, T/C (compound 0.03 µM): 96.6% and 110% and 97.4% | viability, T/C (compound 0.0949 µM): 64.5% and 108% and 80.5% | viability, T/C (compound 0.3 µM): 40.7% and 87.3% and 37.6% | viability, T/C (compound 0.949 µM): 15% and 48.7% and 18.4% | viability, T/C (compound 3 µM): 5.6% and 17.9% and 7.48% | IC50 (curve of compound): 0.189 µM and 0.901 µM and 0.221 µM

O=C(c1cc(Cc2n[nH]c(=O)c3ccccc23)ccc1F)N1CCN(C(=O)C2CC2)CC1
viability, T/C (compound 0.0316 µM): 106% and 111% and 105% | viability, T/C (compound 0.1 µM): 110% and 111% and 95.4% | viability, T/C (compound 0.316 µM): 97.3% and 106% and 87.7% | viability, T/C (compound 1 µM): 98% and 103% and 96.3% | viability, T/C (compound 3.16 µM): 82.4% and 108% and 76.7% | viability, T/C (compound 10 µM): 50.8% and 105% and 60.7% | IC50 (curve of compound): > 10 µM
